From ChEMBL document CHEMBL5728659, “Macrocyclic immunomodulators” (2021) come the findings set out here.

A short description of this test: Enzyme-Linked Immunosorbent Assay-ELISA: 96 Well plates were coated with 1 μg/mL of human PD-L1 (obtained from R&D) in PBS overnight at 4° C. The wells were then blocked with 2% BSA in PBS (W/V) with 0.05% TWEEN-20 for 1 hour at 37° C. The plates were washed 3 times with PBS/0.05% TWEEN-20 and the compounds were serial diluted (1:5) in dilution medium and added to the ELISA plates. Human PD-1 and biotin 0.3 μg/mL (ACRO Biosystems) were added and incubated for 1 hour at 37° C. then washed 3 times with PBS/0.05% TWEEN-20. A second block was performed with 2% BSA in PBS (W/V)/0.05% TWEEN-20 for 10 min at 37° C. and was washed 3 times with PBS/0.05% TWEEN-20. Streptavidin—HRP was added for 1 hour at 37° C. then washed 3 times with PBS/0.05% TWEEN-20. TMB substrate was added and reacted for 20 min at 37° C. A stop solution (2 N aqueous H2SO4) was added. The absorbance was read at 450 nm using a micro-plate spectrophotometer. (An ELISA detects its analyte on a solid surface through an enzyme-linked reagent.)

Each structure is given as a SMILES string.

For orientation: IC50 means the concentration at which inhibition is half-maximal. Consider `Cc1c(COc2cc3c(cc2Cl)CN[C@H](C(=O)O)CCCCNC(=O)c2cncc(c2)CO3)cccc1-c1cccc(OCCCCl)c1C`, for which the IC50 result was “in the range around 10200 nM”.

Take `Cc1c(COc2cc3c(cc2Cl)CN[C@@H](CO)C(=O)NCCNC(=O)c2cncc(c2)CO3)cccc1-c1ccccc1`: the IC50 entry is “in the range around 300 nM”.

On to `Cc1c(COc2cc3c(cc2Cl)CN[C@H](C(=O)O)COCCNC(=O)c2cncc(c2)CO3)cccc1-c1ccccc1`, for which the IC50 result is “in the range around 300 nM”.

Regarding `Cc1c(COc2cc3c(cc2Cl)CN[C@H](C(=O)O)CCCCNC(=O)c2cncc-3c2)cccc1-c1ccccc1`, the IC50 entry was “in the range around 10200 nM”.

On to `Cc1c(COc2cc3c(cc2Cl)CN[C@H](C(=O)O)CCCNC(=O)c2cncc(c2)CO3)cccc1-c1ccccc1`, for which the IC50 entry was “in the range around 300 nM”.

As to `O=C1NCCCC[C@@H](C(=O)O)NCc2cc(Cl)c(O[C@H]3CCc4c(-c5ccccc5F)cccc43)cc2OCc2cncc1c2`, the IC50 result is “in the range around 300 nM”.

Turning to `Cc1c(COc2cc3c(cc2Cl)CN[C@H](CC(=O)O)CCCCNC(=O)c2cncc(c2)CO3)cccc1-c1ccccc1`, the IC50 result is “in the range around 300 nM”.

Take `Cc1c(COc2cc3c(cc2Cl)CN[C@H](C(=O)O)CCCCNC(=O)CCCCO3)cccc1-c1ccccc1`: the IC50 entry was “in the range around 300 nM”.
